The text below walks through data of PubChem BioAssay AID328 (DTP/NCI, 2004).

“And” between values parts separate entries of the source, which are not always exact repeats. Equal values may be shown once. Inconclusive results and toxic doses are left out.

In this assay the test system is BDF1 mice, P388 leukemia ip, median survival T/C. The assay is described as follows: NCI In Vivo Anticancer Drug Screen. Data for tumor model P388 Leukemia (intraperitoneal) in B6D2F1 (BDF1) mice. The note with it: endpoint: median survival time, higher = longer survival. Summed up: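 Survival ratio, drug arm over vehicle arm, in mice with a transplanted tumour.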

Setting [1] is: dose: 100.0 mg/kg/injection, schedule: Q01DX009 (ip), vehicle: saline with Tween-80.
[2] abbreviates: dose: 100.0 mg/kg/injection, schedule: Q04DX003 (ip), vehicle: saline with Tween-80.
[3] abbreviates: dose: 200.0 mg/kg/injection, schedule: Q01DX009 (ip), vehicle: saline with Tween-80.
[4] abbreviates: dose: 200.0 mg/kg/injection, schedule: Q04DX003 (ip), vehicle: saline with Tween-80.
The mark [5] stands for this setting: dose: 400.0 mg/kg/injection, schedule: Q04DX003 (ip), vehicle: saline with Tween-80.
Where [6] appears, read: dose: 25.0 mg/kg/injection, schedule: Q01DX009 (ip), vehicle: Klucel (hydroxypropylcellulose) (HPC).
Setting [7] is: dose: 50.0 mg/kg/injection, schedule: Q01DX009 (ip), vehicle: Klucel (hydroxypropylcellulose) (HPC).
Where [8] appears, read: dose: 100.0 mg/kg/injection, schedule: Q01DX009 (ip), vehicle: Klucel (hydroxypropylcellulose) (HPC).

On to `COc1cc([N+](=O)[O-])c(Cl)cc1NS(=O)(=O)c1ccccc1`, for which the T/C runs as follows: (dose: 67.0 mg/kg/injection, schedule: Q01DX009 (ip), vehicle: saline with Tween-80) 100 % of control and 108 % of control; under setting [1], 100 % of control and 111 % of control; under setting [2], 103 % of control; (dose: 150.0 mg/kg/injection, schedule: Q01DX009 (ip), vehicle: saline with Tween-80) 100 % of control and 111 % of control; under setting [3], 120 % of control; under setting [4], 92 % of control. The T/C (dose: 400.0 mg/kg/injection, schedule: Q01DX009 (ip), vehicle: saline with Tween-80) was 105 % of control and the T/C under setting [5] is 96 % of control.

With `CC12CCC3(CC1CCC(OC(=O)c1ccccc1)C2)OCCO3` (centres undefined), the T/C (dose: 22.0 mg/kg/injection, schedule: Q01DX009 (ip), vehicle: other) is 109 % of control; the T/C (dose: 33.0 mg/kg/injection, schedule: Q01DX009 (ip), vehicle: other) is 109 % of control; the T/C (dose: 44.0 mg/kg/injection, schedule: Q04DX003 (ip), vehicle: other) is 100 % of control; the T/C (dose: 50.0 mg/kg/injection, schedule: Q01DX009 (ip), vehicle: other) was 109 % of control; the T/C (dose: 66.0 mg/kg/injection, schedule: Q04DX003 (ip), vehicle: other) is 109 % of control; the T/C (dose: 75.0 mg/kg/injection, schedule: Q01DX009 (ip), vehicle: other) was 109 % of control. For the same molecule, the T/C by setting is: (dose: 100.0 mg/kg/injection, schedule: Q04DX003 (ip), vehicle: other) 100 % of control; (dose: 150.0 mg/kg/injection, schedule: Q04DX003 (ip), vehicle: other) 100 % of control; (dose: 200.0 mg/kg/injection, schedule: Q01DX009 (ip), vehicle: other) 109 % of control; (dose: 200.0 mg/kg/injection, schedule: Q04DX003 (ip), vehicle: other) 109 % of control; (dose: 400.0 mg/kg/injection, schedule: Q01DX009 (ip), vehicle: other) 104 % of control; (dose: 400.0 mg/kg/injection, schedule: Q04DX003 (ip), vehicle: other) 109 % of control.

As for `CSc1nc(NCc2ccc(Cl)cc2)c2[nH]c(C)nc2n1`, the T/C (dose: 0.78 mg/kg/injection, schedule: Q01DX009 (ip), vehicle: saline with Tween-80) was 122 % of control; the T/C (dose: 1.56 mg/kg/injection, schedule: Q01DX009 (ip), vehicle: saline with Tween-80) was 101 % of control; the T/C (dose: 3.13 mg/kg/injection, schedule: Q01DX009 (ip), vehicle: saline with Tween-80) was 97 % of control; the T/C (dose: 6.25 mg/kg/injection, schedule: Q01DX009 (ip), vehicle: saline with Tween-80) was 93 % of control.

Take `CCCCCCCCCCCCCCCCP(=O)(OCCOCCCCCC)OCCOCCCCCC`: the T/C runs as follows: (dose: 12.5 mg/kg/injection, schedule: Q01DX009 (ip), vehicle: alcohol) 105 % of control; (dose: 12.5 mg/kg/injection, schedule: Q01DX009 (ip), vehicle: saline) 87 % of control; (dose: 25.0 mg/kg/injection, schedule: Q01DX009 (ip), vehicle: alcohol) 105 % of control; (dose: 82.5 mg/kg/injection, schedule: Q01DX001 (ip), vehicle: saline) 100 % of control; (dose: 165.0 mg/kg/injection, schedule: Q01DX001 (ip), vehicle: saline) 100 % of control.

For `O=C(NS(=O)(=O)c1ccc(Cl)cc1)c1cccc2ccccc12`, the T/C runs as follows: under setting [6], 95 % of control; under setting [7], 90 % of control; under setting [8], 109 % of control.

With `CCOC12c3c4cccc3C(=O)c3cccc(c31)C(=O)c1cccc(c12)C4=O`, the T/C is 95 % of control (dose: 100.0 mg/kg/injection, schedule: Q01DX001 (ip), vehicle: Klucel (hydroxypropylcellulose) (HPC)); 100 % of control under setting [8]; 100 % of control (dose: 100.0 mg/kg/injection, schedule: Q04DX003 (ip), vehicle: Klucel (hydroxypropylcellulose) (HPC)); 100 % of control (dose: 200.0 mg/kg/injection, schedule: Q01DX001 (ip), vehicle: Klucel (hydroxypropylcellulose) (HPC)); 100 % of control (dose: 200.0 mg/kg/injection, schedule: Q01DX009 (ip), vehicle: Klucel (hydroxypropylcellulose) (HPC)); 100 % of control (dose: 200.0 mg/kg/injection, schedule: Q04DX003 (ip), vehicle: Klucel (hydroxypropylcellulose) (HPC)). The T/C is 109 % of control (dose: 400.0 mg/kg/injection, schedule: Q01DX001 (ip), vehicle: Klucel (hydroxypropylcellulose) (HPC)); 90 % of control (dose: 400.0 mg/kg/injection, schedule: Q01DX009 (ip), vehicle: Klucel (hydroxypropylcellulose) (HPC)); 91 % of control (dose: 400.0 mg/kg/injection, schedule: Q04DX003 (ip), vehicle: Klucel (hydroxypropylcellulose) (HPC)).

Consider `C[Si](C)(C)C1([Si](C)(C)C)CO1`, for which the T/C is, setting by setting: (dose: 100.0 mg/kg/injection, schedule: Q04DX003 (ip), vehicle: saline) 108 % of control; (dose: 200.0 mg/kg/injection, schedule: Q04DX003 (ip), vehicle: saline) 109 % of control; (dose: 400.0 mg/kg/injection, schedule: Q04DX003 (ip), vehicle: saline) 108 % of control.

Take `CC(C)=NNC(=O)C1CCN1Cc1ccccc1` (centres undefined): the T/C is 102 % of control (dose: 50.0 mg/kg/injection, schedule: Q01DX001 (ip), vehicle: saline); 98 % of control (dose: 100.0 mg/kg/injection, schedule: Q01DX001 (ip), vehicle: saline); 93 % of control (dose: 200.0 mg/kg/injection, schedule: Q01DX001 (ip), vehicle: saline); 102 % of control (dose: 400.0 mg/kg/injection, schedule: Q01DX001 (ip), vehicle: saline).

In the case of `Brc1ccc(-c2csc(Nc3nc(-c4ccc(Br)cc4)cs3)n2)cc1`, the T/C under setting [2] is 90 % of control, the T/C under setting [4] was 90 % of control and the T/C under setting [5] was 95 % of control.

On to `O=I(=O)c1ccccc1`, for which the T/C (dose: 12.5 mg/kg/injection, schedule: Q01DX009 (ip), vehicle: Klucel (hydroxypropylcellulose) (HPC)) is 91 % of control; the T/C (dose: 17.0 mg/kg/injection, schedule: Q01DX009 (ip), vehicle: saline with Tween-80) is 92 % of control; the T/C under setting [6] is 86 % of control and 100 % of control; the T/C (dose: 25.0 mg/kg/injection, schedule: Q01DX009 (ip), vehicle: saline with Tween-80) was 96 % of control; the T/C (dose: 25.0 mg/kg/injection, schedule: Q04DX003 (ip), vehicle: saline with Tween-80) was 100 % of control; the T/C (dose: 37.0 mg/kg/injection, schedule: Q01DX009 (ip), vehicle: saline with Tween-80) was 96 % of control. Besides, the T/C under setting [7] was 86 % of control and 90 % of control and 118 % of control; the T/C (dose: 50.0 mg/kg/injection, schedule: Q01DX009 (ip), vehicle: saline with Tween-80) is 115 % of control; the T/C (dose: 50.0 mg/kg/injection, schedule: Q04DX003 (ip), vehicle: saline with Tween-80) was 90 % of control; the T/C under setting [8] is 104 % of control; the T/C under setting [1] is 120 % of control; the T/C under setting [2] is 90 % of control.

For the molecule `CCOC(=O)C(Cc1ccccc1)P(=O)(OCC)OCC` (centres undefined), the T/C by setting is: under setting [1], 109 % of control; under setting [3], 104 % of control.

As for `O=C1c2ccccc2C(=O)N1/N=C/C=C/c1ccccc1`, the T/C is 106 % of control (dose: 87.5 mg/kg/injection, schedule: Q01DX009 (ip), vehicle: saline with Tween-80); 95 % of control (dose: 175.0 mg/kg/injection, schedule: Q01DX009 (ip), vehicle: saline with Tween-80); 87 % of control (dose: 350.0 mg/kg/injection, schedule: Q01DX009 (ip), vehicle: saline with Tween-80).

As to `CC1=Cc2ccc(C)cc2C(=O)C1=O`, the T/C was 102 % of control (dose: 3.13 mg/kg/injection, schedule: Q01DX009 (ip), vehicle: Klucel (hydroxypropylcellulose) (HPC)) and 108 % of control (dose: 6.25 mg/kg/injection, schedule: Q01DX009 (ip), vehicle: Klucel (hydroxypropylcellulose) (HPC)).

Turning to `CCc1ccc(C(=O)N/N=C(\C)[C@]2(O)Cc3c(O)c4c(c(O)c3[C@@H](OC3CC(N)C(O)C(C)O3)C2)C(=O)c2c(OC)cccc2C4=O)cc1` (some centres undefined), the T/C is, setting by setting: (dose: 1.56 mg/kg/injection, schedule: Q01DX009 (ip), vehicle: water) 117 % of control; (dose: 3.12 mg/kg/injection, schedule: Q01DX009 (ip), vehicle: water) 161 % of control; (dose: 6.25 mg/kg/injection, schedule: Q01DX009 (ip), vehicle: water) 152 % of control and 166 % of control; (dose: 12.5 mg/kg/injection, schedule: Q01DX009 (ip), vehicle: water) 95 % of control and 122 % of control.
